Each structure is given as a SMILES string. “Also recorded” adds a separate entry of the source. Where two headings read alike, the source gives them in different places.

In series [1] the test system is Nb2-SFJCD1 rat lymphoma cells. The series can be described thus: Culture growth inhibition assay in Nb2-SFJCD1 cultures. The class given is cell-based. The conditions noted are these: for IC50: read-out: IC50 (mM) Average ± S.D.; for growth-inhibitory effect in the presence of elevated cystine: cystine at ca. 3-fold elevated levels in the culture medium, Fig. 5. How it is done:
Solubilization of salicylhydroxamic acid and sulfasalazine involved use of 0.1 N NaOH and adjustment of the pH to 7.5-7.7 using 1 N HCl, which was added slowly to the solution swirled by a magnetic stirrer. […] All drugs were obtained from Sigma-Aldrich Canada Ltd., Oakville, ON, Canada. Drug solutions and vehicles (controls) were prepared and assayed under subdued light conditions.
(§1) Nb2 lymphoma is of a pre-T cell origin. The parental line (Nb2 U17) is non-metastatic as subcutaneous implants whereas subline Nb2-SFJCD1 is highly metastatic. Nb2-SFJCD1 cultures (doubling time = 12 - 13 hr) were maintained in Fischer's medium (Sigma-Aldrich), supplemented with 10.0 % horse gelding serum (lactogen-deficient; one batch, ICN Biomedicals, Inc., Auroro, OH), penicillin (50 U/ml) and streptomycin (50 µg/ml). In this medium the cells grow as clumps which can be readily dispersed. Nb2 lymphoma cell lines are used by a number of laboratories; the Nb2-11 subline, is available from the European Collection of Animal Cell Cultures (ECACC) in Salisbury, U.K. The Nb2-U17 and Nb2-SJFCD1 cell lines are available from Dr. Peter W. Gout, B.C. Cancer Research Centre, Vancouver, B.C., Canada.
Nb2-SFTCD1 cells from log phase cultures were centrifaged (3.5 min at 350xg) and gently resuspended in fresh Fisher's medium containing 10% horse gelding serum. Aliquots (1.80 ml) were distributed in 12-well tissue culture plates (Linbro, Flow Laboratories, Mississauga, ON, Canada) and preincubated for 3 - 5 hours at 37°C in a water-saturated 5% CO2/air atmosphere. Solutions of the drugs (200 µl portions) were then added to the cultures for a 45 hour incubation (Cin = 1.0x10^5 cells/ml). Cell populations were determined using an electronic counter (Coulter Electronics, Hialeah, FL).

In a further series the test system is Nb2-U17 tumor transplant. The experiment in a line: Assay of tumor growth inhibition in rats. Type of series: in vivo, Nb rats. The conditions noted are these: b.i.d., 7-day period. How it is done: (§2) A colony of Nb rats is maintained in the British Columbia Cancer Research Centre Vancouver, B.C., Canada. Approximately equal portions of minced Nb2-U17 tumor tissue, developed subcutaneously in a rat following injection of cultured Nb2-U17 cells, were injected by trocar subcutaneously in the nape of the neck of groups of male Nb rats (one injection per rat), that had been lightly anesthetized with isoflurane (Abbott Laboratories Ltd., Montreal, Canada). […] 2 % CMC or saline were used for controls. Drug preparation and administration were carried out under subdued light conditions. Food and water were provided ad libitum. Tumor size, body weight and general health of the rats were monitored twice a day. Tumor size was measured using calipers and expressed in grams using the formula: π/6 x length x width x height in cm. […] On necropsy the animals were examined for evidence of metastatic spread with particular attention to tissues such as kidneys, liver and spleen, the target tissues of metastatic Nb2 lymphoma cells. Tissue sections were taken for histologic analysis. Non-tumor-bearing animals were used to establish maximally tolerated dosages.

The conditions of series [2]: cited from earlier work.
For a further series, the system named is DoHH2 cells. The experiment in a line: Culture growth inhibition assay using DoHH2 cells. The following applies: 1.5% FBS, 0.05 mM, at hr 45, Fig. 4. Type of series: cell-based, human. How it is done:
as §1, with “Canada. DoHH2 cell suspension cultures (doubling time ca. 20 hours) were maintained in RPMI-1640 medium (Stem Cell Technology, Vancouver, B.C., Canada) containing fetal bovine serum (5%), horse serum (5%) and antibiotics.” for “Canada.”
Assays using DoHH2 cells were similarly performed, using their maintenance medium; Cin = ca. 1.5x10^5 cells/ml (see: Kluin-Nelemans, H.C. et al. (1991) Leukemia 5:221.)

The next series deals with MDA-MB-231 cells. The experiment in a line: Cell proliferation of MDA-MB-231 breast carcinoma cells. Type of series: cell-based, human. The source says: (§3) The effect of sulfasalazine on cell proliferation was subsequently assessed. […] Thus, the xc^- transporter is a target for the anti-cancer actions of sulfasalazine in human breast carcinoma.
The conditions of series [3]: rat, in vivo. Here is the method:
as §2

The next series relates to MCF-7 cells. The series can be described thus: Cell proliferation of MCF-7 breast carcinoma cells. The class given is cell-based, human. The following applies: 10 mM.
From the text: as §3

[4] abbreviates: as reported in the literature for patients/controls undergoing treatment with the drugs.
[5] abbreviates: Rattus norvegicus, 45 h at 37°C, Fischer's medium containing 10.0% horse gelding serum.

As to `O=C([O-])c1ccccc1O.[Na+]` [Salicylate, sodium, sodium salicylate], in series [1] (Rattus norvegicus, 45 h), the IC50 was found to be 1.82 ± 0.12 mM. Besides, the inhibition at 3000 µM in series [1] (Rattus norvegicus, read-out: inhibited the growth of the Nb2 cell cultures) is ~70%. In addition, the “growth-inhibitory effect in the presence of elevated cystine” value in series [1] is “only marginally affected”. In addition, in the series with Nb2-U17 tumor transplant (i.p. 150 mg/kg body wt, 150 mg/kg), the tumor growth inhibition result is “did not inhibit tumor growth; also recorded: had no effect”. Moreover, the “Therapeutic drug levels in plasma” value in series [2] (setting [4]) was 1 to 3 mM.

Consider `Nc1ccc(O)c(C(=O)O)c1` [5-aminosalicylic acid], for which, in series [2] (setting [4]), the “Therapeutic drug levels in plasma” value is “ca. 0.01 mM”.

As to `O=C(O)c1cc(/N=N/c2ccc(S(=O)(=O)Nc3ccccn3)cc2)ccc1O` [Sulfasalazine], the growth arrest result in series [1] (0.15 mM, 45 hour experiment) was “only partially arrested growth”. Besides, the IC50 in series [1] (setting [5]) was ~0.17 mM; in the series on MDA-MB-231 cells (Homo sapiens, MDA-MB-231), 300 ± 5 µM. Besides, the “growth-inhibitory effect in the presence of elevated cystine” value in series [1] is “substantially reduced”. Also, the growth-inhibitory activity entry in series [1] (range 0.1 - 0.3 mM, Fig. 2) is reported as “highly potent”. For the same compound, in the series with DoHH2 cells, the cell lysis entry is given as “extensive cell lysis”. Also, in the series on Nb2-U17 tumor transplant (oral administration, 500 mg/kg body wt), the lymphoma growth-inhibitory effect entry is listed as “only minor lymphoma growth-inhibitory effect”. In the series on MDA-MB-231 cells (2-ME (60µM)), the “antagonism of the inhibitory actions by 2-ME” value is reported as “completely antagonized”. Also, the “side effects (general health and appearance)” value in series [3] was “no major side effects”. Moreover, the minor side effect entry in series [3] (ip) was “thickening of tissue at the site of the injections”. Also, the “Therapeutic drug levels in plasma” value in series [2] (setting [4]) was 0.08 to 0.2 mM.

For `NC(=O)c1ccccc1O` [Salicylamide], in series [1] (setting [5]), the IC50 was found to be 1.34 ± 0.13 mM.

Consider `Nc1ccc(S(=O)(=O)Nc2ccccn2)cc1` [sulfapyridine], for which the “Therapeutic drug levels in plasma” value in series [2] (setting [4]) is 0.08 to 0.2 mM.

`CC(C)Cc1ccc(C(C)C(=O)O)cc1` (stereo not drawn) [Ibuprofen]: in series [1] (Rattus norvegicus, 0.1 mM (therapeutic concentration), Fig. 1, read-out: inhibited the growth of the Nb2 cell cultures), the inhibition at 100 µM lay within 5 to 10%. Besides, the IC50 in series [1] (setting [5]) was 0.43 ± 0.01 mM. The “Therapeutic drug levels in plasma” value in series [2] (in vivo) is 0.05 to 0.1 mM.

Take `N[C@@H](CCC(=O)O)C(=O)[O-].[Na+]` [Monosodium glutamate]: the inhibition of proliferation result in the series with MCF-7 cells was “to an extent similar to that observed for sulfasalazine”. The “inhibition of proliferation with addition of 2-ME” value in the series on MCF-7 cells (2-ME added to the cultures) is given as “completely negated this effect”.

Regarding `CN1C(C(=O)Nc2ccccn2)=C(O)c2ccccc2S1(=O)=O` [Piroxicam], the inhibition at 30 µM in series [1] (Rattus norvegicus, 0.03 mM (therapeutic concentration), Fig. 1, read-out: inhibited the growth of the Nb2 cell cultures) lay within 5 to 10%. Also, the IC50 in series [1] (setting [5]) worked out at 0.3 ± 0.02 mM. In series [2] (in vivo), the “Therapeutic drug levels in plasma” value is 0.015 to 0.03 mM.

Values taken from patent publication EP1278521B1, “N-HETEROCYCLIC SUBSTITUTED SALICYLATES FOR THE TREATMENT OF CANCER” (priority 2000, dated 2001).
